Experiment [1] concerns the target T1, soluble A-protein (As), purified from bovine rod outer segments, N-terminus SEQ ID NO:2 (Bos taurus, UniProt P21457).
T1 sequence (P21457 2-202): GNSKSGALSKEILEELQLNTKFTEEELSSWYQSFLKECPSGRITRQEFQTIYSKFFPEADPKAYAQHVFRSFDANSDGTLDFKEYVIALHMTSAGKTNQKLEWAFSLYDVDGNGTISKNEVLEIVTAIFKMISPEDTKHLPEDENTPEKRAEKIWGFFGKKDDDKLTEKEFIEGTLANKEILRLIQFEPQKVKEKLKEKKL
The experiment can be described thus: GTP analog binding assay (nitrocellulose filtration). The following applies: 30 minutes, no cofactors. Here is the method:
(§1) Assays of the binding of the GTP-analogs Gpp(NH)p and GTPγS (New England Nuclear) by both Am and AS were performed according to the methods of Northup et al. (J. Biol. Chem., 257:11416-11423 (1982)). Binding was carried out in a total volume of 100 µl of solution containing 5 to 10 µg purified A-protein, 15.3 µM 3H-Gpp(NH)p (10 µCi) or 1.32 µM GTPγS^35 (1 µCi) and buffer (100 mM NaCl, 0.1 mM EDTA, 20 mM Tris-HCl, pH 7.0). The samples were vortexed and incubated at 25°C for 30 minutes, quenched with 200 µl ice-cold buffer (0.5 M NaCl, 0.1 M Tris-HCl, 0.1% Tween 80™), and kept on ice for 30 minutes. The samples were placed onto nitrocellulose filters that had been previously washed with 2 ml of the same buffer. The filters were rinsed 5 times with 2 ml ice-cold buffer and assayed for radioactivity.

Experiment [2] has as its target T2, membrane-bound A-protein (Am), purified from bovine rod outer segments, N-terminus SEQ ID NO:1 (Bos taurus, UniProt P21457).
T2 sequence (P21457 2-202): T1 sequence (P21457 2-202)
The description is as above. The following applies: 30 minutes, no cofactors. The protocol: as §1

For experiment [3], the target named is T2, membrane-bound A-protein (Am), purified from bovine rod outer segments, N-terminus SEQ ID NO:1. The experiment can be described thus: GTPase assay (hydrolysis of [γ-32P]GTP). In kind it is biochemical. Here is the method: (§2) GTP (2.8 Ci/mmol) or 88.8 to 177.5 nM [γ-^32P] […] The stripped ROS membranes (containing rhodopsin as the receptor) were prepared by washing ROS membranes 3 times in buffer C(100 mM NaCl, 20 mM Tris-HCl, pH 7.0, 1 mM MgCl2) and 3 times in water containing 0.01% polyoxyethylene 23 lauryl ether (Brij 35™ nonionic detergent, Sigma Chemical Co.). The stripped membranes were resuspended in buffer D (10 mM Tris-HCl, pH 7.0, 0.1 mM EGTA) prior to use.
(§3) Samples were incubated at room temperature for 5 minutes and quenched with 200 µl ice-cold quench buffer ([…] KH2PO4, 6% Norite A, 10% TCA). The samples were kept on ice for 30 minutes and spun down for 5 minutes in a microcentrifuge. 50 µl aliquots of each supernatant were placed in a vial with 5 ml scintillation fluid and assayed for radioactivity. The hydrolysis of [γ-^32P]-GTP was measured in the presence and absence of photolyzed rhodopsin.
The apparent Michaelis constant was determined for As and Am by measuring the rate of GTP hydrolysis over a thousand-fold range of substrate concentrations. Km and Vmax were determined by construction of double reciprocal plots and regression analysis.

The next experiment concerns the target transducin (Tα) (Bos taurus, UniProt P04695). The experiment can be described thus: GTPase assay, comparison protein. In kind it is biochemical. The conditions noted are these: mol/mol basis, submaximal velocity, in the presence of photoactivated rhodopsin. The protocol:
as §2, §3
The GTPase rates for Am and transducin are additive when the two purified proteins are present in approximately equimolar concentrations.

The target in experiment [4] is T2, membrane-bound A-protein (Am), purified from bovine rod outer segments, N-terminus SEQ ID NO:1. The experiment can be described thus: ATPase assay (hydrolysis of [γ-32P]ATP). The format is biochemical. The following applies: double reciprocal plots and regression analysis. Here is the method:
as §2, §3
Km and Vmax were determined by construction of double reciprocal plots and regression analysis.

Each structure is given as a SMILES string.

transducin (Tα), sequence (P04695 2-350 limits assumed): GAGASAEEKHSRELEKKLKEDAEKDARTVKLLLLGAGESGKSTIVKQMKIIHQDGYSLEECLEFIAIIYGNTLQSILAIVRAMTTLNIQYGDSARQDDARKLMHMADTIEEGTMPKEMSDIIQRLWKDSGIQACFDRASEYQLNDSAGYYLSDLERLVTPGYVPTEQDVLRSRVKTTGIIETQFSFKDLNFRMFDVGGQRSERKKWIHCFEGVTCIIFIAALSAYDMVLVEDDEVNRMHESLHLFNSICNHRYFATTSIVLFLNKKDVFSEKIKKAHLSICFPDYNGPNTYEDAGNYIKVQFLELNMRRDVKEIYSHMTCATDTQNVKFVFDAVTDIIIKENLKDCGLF

Regarding `Nc1nc2c(ncn2[C@@H]2O[C@H](COP(=O)(O)OP(=O)(O)NP(=O)(O)O)[C@@H](O)[C@H]2O)c(=O)[nH]1` [Gpp(NH)p], the “Gpp(NH)p bound by As” value in experiment [1] (15.3 µM 3H-Gpp(NH)p, 25°C) is on record as 0.29 ± 0.08 mol GTP Analog/mol Protein. The “Gpp(NH)p bound by Am” value in experiment [2] (15.3 µM 3H-Gpp(NH)p, 25°C) was 0.57 ± 0.12 mol GTP Analog/mol Protein.

Take `Nc1nc2c(ncn2[C@@H]2O[C@H](COP(=O)(O)OP(=O)(O)OP(=O)(O)O)[C@@H](O)[C@H]2O)c(=O)[nH]1` [GTP, guanosine triphosphate]: the “Vmax:Am GTPase” value in experiment [3] (double reciprocal plots and regression analysis) is 16.4 nmol/mgAmmin^-1. In addition, the “rate of GTP hydrolysis by Am” value in experiment [3] (mol/mol basis, submaximal velocity, in the presence of photoactivated rhodopsin) is on record as 0.458 GTP sec^-1/Am. In addition, the “rate of GTP hydrolysis by transducin” value at transducin (Tα) came to 0.512 GTP sec^-1/Tα.

Consider `Nc1ncnc2c1ncn2[C@@H]1O[C@H](COP(=O)(O)OP(=O)(O)OP(=O)(O)O)[C@@H](O)[C@H]1O` [ATP, adenosine triphosphate], for which the “Vmax:Am ATPase” value in experiment [4] was 2.90 (±0.16) pmol/mg A-protein min^-1.

Consider `Nc1nc2c(ncn2[C@@H]2O[C@H](COP(=O)(O)OP(=O)(O)OP(O)(O)=S)[C@@H](O)[C@H]2O)c(=O)[nH]1` [GTPγS], for which, in experiment [1] (1.32 µM GTPγS35, 25°C), the “GTPγS bound by As” value is listed as 0.47 mol GTP Analog/mol Protein. Moreover, the “GTPγS bound by Am” value in experiment [2] (1.32 µM GTPγS35, 25°C) is 0.93 mol GTP Analog/mol Protein.

The record behind these values is patent publication EP0803065B1, “A-PROTEIN AS A DIAGNOSTIC OF CANCER” (THE SCHEPENS EYE RESEARCH INSTITUTE, priority 1995, dated 1996).
